In US20100041089A1, “IMPROVED METHOD FOR DETECTING CHEMICAL […]” (priority 2006, published 2010):

Test system: yeast genes (expressed mRNA)
Assay: DNA chip measurement of expressed mRNA of yeast genes after culture with a toxic chemical substance
Format: cell-based, Saccharomyces cerevisiae S288C
Details: for The level of expressed mRNA in the presence of chemical substance/The level of expressed mRNA in the absence of chemical substance: cultured two hours with substance; for level of expressed mRNA in the presence of chemical substance / level in the absence of chemical substance: cultured two hours with the chemical substance
Outline: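 S. cerevisiae S288C grown at 25 °C in YPD, exposed in log phase for 2 h to a toxicant at growth-inhibiting, non-lethal concentration. Cy3/Cy5-labelled cDNA from poly(A) mRNA hybridized to whole-genome chip at 65 °C >12 h. Ratio to untreated control, ≥2 significant.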

Manganese ethylenebis(dithiocarbamate) [(8)]
1.1: level of expressed mRNA in the presence of chemical substance / level in the absence of chemical substance (yeast gene YNL253W) | The level of expressed mRNA in the presence of chemical substance/The level of expressed mRNA in the absence of chemical substance (yeast gene YNR068C) | level of expressed mRNA in the presence of chemical substance / level in the absence of chemical substance (yeast gene YOL026C) | The level of expressed mRNA in the presence of chemical substance/The level of expressed mRNA in the absence of chemical substance (yeast gene YOL047C) | The level of expressed mRNA in the presence of chemical substance/The level of expressed mRNA in the absence of chemical substance (yeast gene YOL082W) | The level of expressed mRNA in the presence of chemical substance/The level of expressed mRNA in the absence of chemical substance (yeast gene YOL117W) | The level of expressed mRNA in the presence of chemical substance/The level of expressed mRNA in the absence of chemical substance (yeast gene YOL131W) | The level of expressed mRNA in the presence of chemical substance/The level of expressed mRNA in the absence of chemical substance (yeast gene YOR019W) | level of expressed mRNA in the presence of chemical substance / level in the absence of chemical substance (yeast gene YPL150W) | level of expressed mRNA in the presence of chemical substance / level in the absence of chemical substance (yeast gene YPL152W) | level of expressed mRNA in the presence of chemical substance / level in the absence of chemical substance (yeast gene YPR049C)
0.8: The level of expressed mRNA in the presence of chemical substance/The level of expressed mRNA in the absence of chemical substance (yeast gene YNL115C) | The level of expressed mRNA in the presence of chemical substance/The level of expressed mRNA in the absence of chemical substance (yeast gene YOL036W) | level of expressed mRNA in the presence of chemical substance / level in the absence of chemical substance (yeast gene YOR087W) | level of expressed mRNA in the presence of chemical substance / level in the absence of chemical substance (yeast gene YOR138C) | level of expressed mRNA in the presence of chemical substance / level in the absence of chemical substance (yeast gene YPR146C)
1.8: The level of expressed mRNA in the presence of chemical substance/The level of expressed mRNA in the absence of chemical substance (yeast gene YNL044W)
0.6: The level of expressed mRNA in the presence of chemical substance/The level of expressed mRNA in the absence of chemical substance (yeast gene YNL074C)
1.2: The level of expressed mRNA in the presence of chemical substance/The level of expressed mRNA in the absence of chemical substance (yeast gene YNL156C) | The level of expressed mRNA in the presence of chemical substance/The level of expressed mRNA in the absence of chemical substance (yeast gene YNL281W) | level of expressed mRNA in the presence of chemical substance / level in the absence of chemical substance (yeast gene YOR022C) | level of expressed mRNA in the presence of chemical substance / level in the absence of chemical substance (yeast gene YOR253W) | level of expressed mRNA in the presence of chemical substance / level in the absence of chemical substance (yeast gene YPL168W) | The level of expressed mRNA in the presence of chemical substance/The level of expressed mRNA in the absence of chemical substance (yeast gene YPL196W)
1.5: level of expressed mRNA in the presence of chemical substance / level in the absence of chemical substance (yeast gene YNL063W) | The level of expressed mRNA in the presence of chemical substance/The level of expressed mRNA in the absence of chemical substance (yeast gene YOL032W) | level of expressed mRNA in the presence of chemical substance / level in the absence of chemical substance (yeast gene YPR148C)
1.0: level of expressed mRNA in the presence of chemical substance / level in the absence of chemical substance (yeast gene YPL005W) | The level of expressed mRNA in the presence of chemical substance/The level of expressed mRNA in the absence of chemical substance (yeast gene YPL087W) | level of expressed mRNA in the presence of chemical substance / level in the absence of chemical substance (yeast gene YPL180W) | The level of expressed mRNA in the presence of chemical substance/The level of expressed mRNA in the absence of chemical substance (yeast gene YPL206C) | level of expressed mRNA in the presence of chemical substance / level in the absence of chemical substance (yeast gene YPR172W)
1.7: level of expressed mRNA in the presence of chemical substance / level in the absence of chemical substance (yeast gene YPL225W)
1.6: The level of expressed mRNA in the presence of chemical substance/The level of expressed mRNA in the absence of chemical substance (yeast gene YOL071W) | The level of expressed mRNA in the presence of chemical substance/The level of expressed mRNA in the absence of chemical substance (yeast gene YOL162W) | level of expressed mRNA in the presence of chemical substance / level in the absence of chemical substance (yeast gene YPL188W)
0.9: The level of expressed mRNA in the presence of chemical substance/The level of expressed mRNA in the absence of chemical substance (yeast gene YNL092W) | level of expressed mRNA in the presence of chemical substance / level in the absence of chemical substance (yeast gene YNL176C) | level of expressed mRNA in the presence of chemical substance / level in the absence of chemical substance (yeast gene YNL194C) | The level of expressed mRNA in the presence of chemical substance/The level of expressed mRNA in the absence of chemical substance (yeast gene YOR197W) | level of expressed mRNA in the presence of chemical substance / level in the absence of chemical substance (yeast gene YOR325W) | level of expressed mRNA in the presence of chemical substance / level in the absence of chemical substance (yeast gene YPL221W) | The level of expressed mRNA in the presence of chemical substance/The level of expressed mRNA in the absence of chemical substance (yeast gene YPR023C)
1.4: The level of expressed mRNA in the presence of chemical substance/The level of expressed mRNA in the absence of chemical substance (yeast gene YPR151C)
3.7: The level of expressed mRNA in the presence of chemical substance/The level of expressed mRNA in the absence of chemical substance (yeast gene YOL150C)
0.7: level of expressed mRNA in the presence of chemical substance / level in the absence of chemical substance (yeast gene YNL200C) | level of expressed mRNA in the presence of chemical substance / level in the absence of chemical substance (yeast gene YNL276C) | The level of expressed mRNA in the presence of chemical substance/The level of expressed mRNA in the absence of chemical substance (yeast gene YNL305C) | level of expressed mRNA in the presence of chemical substance / level in the absence of chemical substance (yeast gene YNR051C) | level of expressed mRNA in the presence of chemical substance / level in the absence of chemical substance (yeast gene YOR267C) | The level of expressed mRNA in the presence of chemical substance/The level of expressed mRNA in the absence of chemical substance (yeast gene YPL222W)
1.3: The level of expressed mRNA in the presence of chemical substance/The level of expressed mRNA in the absence of chemical substance (yeast gene YNL234W) | The level of expressed mRNA in the presence of chemical substance/The level of expressed mRNA in the absence of chemical substance (yeast gene YOL083W)
